Reference: BindingDB's records for doi:10.7270/Q2KH0KWR (Burnham Center For Chemical Genomics, 2012)
Each block holds one molecule with its values, some of them ahead of it.

Target: T1, Tyrosine-protein phosphatase non-receptor type 5 (Homo sapiens, UniProt P54829)
T1 sequence (P54829 whole entry): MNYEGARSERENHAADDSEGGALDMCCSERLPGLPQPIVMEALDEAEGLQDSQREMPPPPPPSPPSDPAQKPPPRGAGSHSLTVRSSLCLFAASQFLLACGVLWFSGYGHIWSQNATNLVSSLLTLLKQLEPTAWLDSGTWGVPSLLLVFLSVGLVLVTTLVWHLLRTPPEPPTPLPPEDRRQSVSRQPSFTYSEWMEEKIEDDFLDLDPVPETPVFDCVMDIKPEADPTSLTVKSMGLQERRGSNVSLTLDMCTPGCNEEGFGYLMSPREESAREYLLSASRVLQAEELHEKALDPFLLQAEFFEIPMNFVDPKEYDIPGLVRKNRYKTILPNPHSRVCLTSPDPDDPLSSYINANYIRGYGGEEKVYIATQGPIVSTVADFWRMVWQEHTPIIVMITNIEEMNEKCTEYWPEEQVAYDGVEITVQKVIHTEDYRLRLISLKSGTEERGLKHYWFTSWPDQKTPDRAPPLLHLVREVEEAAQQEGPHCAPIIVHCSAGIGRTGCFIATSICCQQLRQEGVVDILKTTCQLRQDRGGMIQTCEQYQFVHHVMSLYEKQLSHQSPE
Test: PTPN5 inhibition measured colorimetrically – biochemical, colorimetric absorbance, orthogonal assay for STEP inhibitor project, dose response (AID 624207)

[1] = inactive by the depositor's call

IC50: > 80 µM
SMILES: S=C1N=C(C23CC4CC(CC(C4)C2)C3)CC(c2ccc3c(c2)OCO3)N1 (configuration not stated)

IC50 [1]: 37.9 µM
SMILES: O=C(CCc1ccccc1)NNC(=O)c1ccc(NC(=O)c2ccccc2)cc1

IC50: > 80 µM
SMILES: CCc1ccc(NC(=O)Cc2cn(C)c3ccccc23)cc1

IC50 [1]: 21.8 µM
SMILES: CCC(CC)c1nnc(NC(=O)c2cc(C(=O)OC)cc([N+](=O)[O-])c2)s1

IC50: > 80 µM
SMILES: CC(=O)N1CCC(N(CCN2CCOCC2)C(=S)Nc2ccc(C)cc2)CC1

IC50 [1]: 56 µM
SMILES: Cc1ccc(N=C(S)N(CCN(C)C)Cc2cccs2)c(C)c1

IC50: > 80 µM
SMILES: Cc1ccc(S(=O)(=O)c2cnc3ccc(Cl)cc3c2O)cc1

IC50: > 80 µM
SMILES: O=C(C=Cc1ccc(Cl)cc1)NC(=S)Nc1ccc(C(=O)O)cc1

IC50: > 80 µM
SMILES: CC(/N=N/c1ccc(S(N)(=O)=O)cc1[N+](=O)[O-])c1cccs1 (configuration not stated)

IC50: > 80 µM
SMILES: CC(=O)c1ccc(S(=O)(=O)Nc2cccc(-n3cnnn3)c2)cc1

IC50: > 80 µM
SMILES: Cc1ccc(S(=O)(=O)N2CCCCC2)cc1NC(=O)c1ccc(=O)[nH]c1

IC50 [1]: 42 µM
SMILES: CN1CCN(C(=S)c2ccc(Br)cc2)CC1 [1-[(4-bromophenyl)carbonothioyl]-4-methylpiperazine]

IC50 [1]: 57.9 µM
SMILES: Cc1nn(C)cc1C=NNC(=S)Nc1ccccc1 [1-[(E)-(1,3-dimethylpyrazol-4-yl)methylideneamino]-3-phenyl-thiourea]

IC50: 12.1 µM
SMILES: Cc1cc(C)c(NC(S)=NCC2CCN(C(C)c3ccccc3)C2)c(C)c1 (configuration not stated) [1-[[1-(1-phenylethyl)-3-pyrrolidinyl]methyl]-3-(2,4,6-trimethylphenyl)thiourea]

IC50 [1]: 57 µM
SMILES: CCCN(CC(=O)Nc1ccccc1OC)C(=O)Cc1ccc2c(c1)CCC2 [2-(2,3-dihydro-1H-inden-5-yl)-N-[2-[(2-methoxyphenyl)amino]-2-oxidanylidene-ethyl]-N-propyl-ethanamide]

IC50 [1]: 26.3 µM
SMILES: Cc1c(CC(=O)O)c(=O)oc2c(C)c(OCc3ccccc3Br)ccc12 [2-[7-[(2-bromophenyl)methoxy]-4,8-dimethyl-2-oxochromen-3-yl]acetic acid]

IC50: 8.34 µM
SMILES: Cc1cccc(Nc2nn3c(=O)c4ccccc4nc3s2)c1 [2-[(3-methylphenyl)amino]-5H-[1,3,4]thiadiazolo[2,3-b]quinazolin-5-one]

IC50: > 80 µM
SMILES: COc1cc(/C=C2/SC(=S)N(CC(=O)O)C2=O)ccc1OCC(=O)Nc1ccc(C)c(C)c1 [2-[(5E)-5-[[4-[2-[(3,4-dimethylphenyl)amino]-2-oxidanylidene-ethoxy]-3-methoxy-phenyl]methylidene]-4-oxidanylidene-2-sulfanylidene-1,3-thiazolidin-3-yl]ethanoic acid]

IC50: > 80 µM
SMILES: CCCCCn1c(N)c(-c2nc3ccccc3o2)c2c([N+](=O)[O-])nn(C)c(=O)c21 [2-amino-1-amyl-3-(1,3-benzoxazol-2-yl)-6-methyl-4-nitro-pyrrolo[2,3-d]pyridazin-7-one]

IC50 [1]: 76.5 µM
SMILES: Cc1ccc(-n2c(C)nc3oc4ccccc4c(=O)c3c2=O)cc1 [2-methyl-3-(4-methylphenyl)[1]benzopyrano[2,3-d]pyrimidine-4,5-dione]

IC50: > 80 µM
SMILES: O=C(NN=Cc1ccc(F)cc1)c1cc(-c2ccc3c(c2)OCO3)n[nH]1 [3-(1,3-benzodioxol-5-yl)-N-[(E)-(4-fluorobenzylidene)amino]-1H-pyrazole-5-carboxamide]

IC50: > 80 µM
SMILES: Cc1c(CCC(=O)O)c(=O)oc2c(C)c(OCc3cc4c(cc3Cl)OCO4)ccc12 [3-[7-[(6-chloranyl-1,3-benzodioxol-5-yl)methoxy]-4,8-dimethyl-2-oxidanylidene-chromen-3-yl]propanoic acid]

IC50: 1.55 µM
SMILES: O=C(CSc1nc(-c2ccc(F)cc2)nc2c1Cc1ccccc1O2)Nc1cccc(C(=O)O)c1 [3-[({[2-(4-fluorophenyl)-5H-chromeno[2,3-d]pyrimidin-4-yl]thio}acetyl)amino]benzoic acid]

IC50: > 80 µM
SMILES: O=C1Nc2ccc3sc4ccccc4c3c2C1=O [3H-6-Thia-3-aza-cyclopenta[c]fluorene-1,2-dione]

Further lines, the molecule ahead of its results:

SMILES: Nc1ccc2c(O)cc(S(=O)(=O)O)cc2c1
IC50: > 80 µM

SMILES: O=S(=O)(O)c1cc(O)c2cc(Nc3ccccc3)ccc2c1
IC50 [1]: 24.1 µM

SMILES: O=S(=O)(Nc1ccc(Cl)cc1)c1ccc(N2CCOCC2)c(NC(=S)NCCN2CCOCC2)c1
IC50 [1]: 21.3 µM

SMILES: COc1cccc(Nc2nn3c(=O)c4ccccc4nc3s2)c1
IC50 [1]: 58.2 µM

SMILES: Cc1ccc(-c2nc3ncccc3o2)cc1NC(=O)CC(C)C
IC50: > 80 µM

SMILES: O=C(N/N=C/c1ccncc1)c1cccc(S(=O)(=O)Nc2ccc(Cl)cc2)c1
IC50: 19.7 µM

SMILES: COc1cc(NC(=S)N2CCN(C)CC2)c(OC)cc1Cl
IC50: > 80 µM

SMILES: CN1CCC2(CC1)N=C(c1ccc(F)cc1)C(=S)N2
IC50 [1]: 71.7 µM

SMILES: S=C(NCCCN1CCOCC1)Nc1ccc(-c2nc3ccccc3[nH]2)cc1
IC50 [1]: 79.6 µM

SMILES: COc1ccc(NC(=O)c2cc(=O)c3ccccc3o2)cc1Cl
IC50: > 80 µM

SMILES: O=C1NN(c2cccc(Br)c2)C(=O)/C1=C\c1ccc(N2CCOCC2)cc1
IC50: > 80 µM

SMILES: NN=C1C(Cl)=C(Cl)C(Cl)=C1Cl
IC50: > 80 µM

SMILES: NC(=O)C1(N2CCCCC2)CCN(C(=S)Nc2ccc(S(N)(=O)=O)cc2)CC1 [1'-({[4-(aminosulfonyl)phenyl]amino}carbonothioyl)-1,4'-bipiperidine-4'-carboxamide]
IC50 [1]: 25.9 µM

SMILES: S=C(NCCc1ccccc1)Nc1c(Cl)cccc1Cl [1-(2,6-dichlorophenyl)-3-(2-phenylethyl)thiourea]
IC50 [1]: 41.2 µM

SMILES: COc1ccc(NC(S)=NCCN2CCC(C)CC2)cc1Cl [1-(3-chloro-4-methoxyphenyl)-3-[2-(4-methyl-1-piperidinyl)ethyl]thiourea]
IC50: 18.2 µM

SMILES: COc1ccc(NC(=S)NCCCN2CCCC2)cc1Cl [1-(3-chloro-4-methoxyphenyl)-3-[3-(1-pyrrolidinyl)propyl]thiourea]
IC50 [1]: 31.1 µM

SMILES: COCCCN(C(S)=Nc1c(C)cc(C)cc1C)C(C)c1ccccn1 (configuration not stated) [1-(3-methoxypropyl)-1-[1-(2-pyridinyl)ethyl]-3-(2,4,6-trimethylphenyl)thiourea]
IC50: > 80 µM

SMILES: CC(C)OCCCN=C(S)Nc1ccc(S(N)(=O)=O)cc1 [1-(3-propan-2-yloxypropyl)-3-(4-sulfamoylphenyl)thiourea]
IC50: > 80 µM

SMILES: Cc1c(C)n(C(=O)CSc2nc3ccccc3[nH]2)c2ccccc12 [2-(1H-benzimidazol-2-ylthio)-1-(2,3-dimethyl-1-indolyl)ethanone]
IC50: > 80 µM

SMILES: CCCc1cc(=O)oc2cc(OCC(=O)Nc3ccc(S(N)(=O)=O)cc3)ccc12 [2-(2-oxo-4-propylchromen-7-yl)oxy-N-(4-sulfamoylphenyl)acetamide]
IC50 [1]: 30.6 µM

SMILES: CCOc1cc(CN=Nc2nc(O)c(CC(=O)O)s2)ccc1OCc1ccc(Cl)cc1Cl [2-[2-[(N''E)-N''-[4-(2,4-dichlorobenzyl)oxy-3-ethoxy-benzylidene]hydrazino]-4-keto-2-thiazolin-5-yl]acetic acid]
IC50: > 80 µM

SMILES: O=C(O)c1ccc2c(c1)C(=O)N(c1cccc(-c3nc4ccccc4s3)c1)C2=O [2-[3-(1,3-benzothiazol-2-yl)phenyl]-1,3-bis(oxidanylidene)isoindole-5-carboxylic acid]
IC50: > 80 µM

SMILES: CCN1CCN(C(=S)c2ccc(OCC(=O)NCc3ccccc3)cc2)CC1 [2-[4-(4-ethylpiperazin-1-yl)carbothioylphenoxy]-N-(phenylmethyl)ethanamide]
IC50: > 80 µM

SMILES: CCc1ccc(NC2=NC(=O)C(=Cc3ccc(OCC(=O)O)cc3)S2)cc1 [2-[4-[(Z)-[2-(4-ethylanilino)-4-oxo-5-thiazolylidene]methyl]phenoxy]acetic acid]
IC50: 37.1 µM

SMILES: Cc1ccc(-c2nc(NC(=O)CSc3cc(C)c4ccccc4n3)ns2)cc1 [2-[(4-methyl-2-quinolyl)thio]-N-[5-(p-tolyl)-1,2,4-thiadiazol-3-yl]acetamide]
IC50: > 80 µM

SMILES: COc1ccc(NC(=S)N(CCC(C)C)C2CCN(C(C)C)CC2)cc1Cl [3-(3-chloranyl-4-methoxy-phenyl)-1-(3-methylbutyl)-1-(1-propan-2-ylpiperidin-4-yl)thiourea]
IC50: 10.6 µM

SMILES: COc1ccc(-n2nc(C(=O)NCC(=O)Nc3ccccn3)c3ccccc3c2=O)cc1Cl [3-(3-chloranyl-4-methoxy-phenyl)-4-oxidanylidene-N-[2-oxidanylidene-2-(pyridin-2-ylamino)ethyl]phthalazine-1-carboxamide]
IC50: > 80 µM

SMILES: Cc1ccc(Cn2cc(C=O)c(-c3ccc(C)cc3)n2)cc1 [3-(4-methylphenyl)-1-[(4-methylphenyl)methyl]-4-pyrazolecarboxaldehyde]
IC50: > 80 µM

SMILES: Cc1c(CCC(=O)O)c(=O)oc2c(C)c(OCc3ccccc3Cl)ccc12 [3-[7-[(2-chlorophenyl)methoxy]-4,8-dimethyl-2-oxochromen-3-yl]propanoic acid]
IC50: 6.4 µM

SMILES: O=C(N/N=C/c1cccnc1)c1ccc(NC(=O)c2cccc(Cl)c2)cc1 [3-chloro-N-[4-[oxo-[(2E)-2-(3-pyridinylmethylidene)hydrazinyl]methyl]phenyl]benzamide]
IC50 [1]: 45.6 µM

SMILES: Cn1c(=O)[nH]c(=O)c2c1nc(SCCN1CCCCC1)n2CCCc1ccccc1 [3-methyl-7-(3-phenylpropyl)-8-[2-(1-piperidinyl)ethylthio]purine-2,6-dione]
IC50 [1]: 60.5 µM

SMILES: COc1cc(/C=C2/C(=O)NN(c3cccc(C)c3)C2=O)cc([N+](=O)[O-])c1O [4-(4-hydroxy-3-methoxy-5-nitrobenzylidene)-1-(3-methylphenyl)-3,5-pyrazolidinedione]
IC50: > 80 µM

SMILES: CN(C)c1ccc(C(=O)OCC(=O)Nc2ccc(S(N)(=O)=O)cc2)cc1 [4-(dimethylamino)benzoic acid [2-oxo-2-(4-sulfamoylanilino)ethyl] ester]
IC50: 7.9 µM
